Source: US12403141B2, “Deuterated MK2 pathway inhibitors and methods of using the same” (ACLARIS THERAPEUTICS, INC., priority 2019, dated 2025)
“Also recorded” adds a separate entry of the source.

Experiments:
[1] = PO pharmacokinetics in male SD rats; format: in vivo, rat; settings: PO 2 mpk
Procedure: Pharmacokinetic parameters of some examples were evaluated in male Sprague Dawley (SD) rats after intravenous (IV) and oral (PO) dosing. Male SD rats (5-6 weeks of age) were fasted for 12 hours before administration of the compound of interest. Animals were allowed access to food 2 h after dosing and water was given ad libitum. Except for the compound of Example 13, pharmacokinetic experiments comparing deuterium containing and non-deuterium containing compounds were performed at the same time using the same cohort of animals. The pharmacokinetic properties of the compound of Example 13 were evaluated separately and compared to previously generated data.
For oral (PO) dosing, a 0.2 mg/mL suspension of the test compound was prepared in a vehicle comprising 0.5% Tween-20 in 0.5% methyl cellulose in phosphate buffered saline (PBS). For a 2 mpk dose, 10 mL/kg of this dosing vehicle was administered by oral gavage. Blood samples from each animal was collected di-sodium EDTA coated containers at 0.25, 0.5, 1.0, 2.0, 4.0, 8.0 10.0 and 24.0 hours after dosing. Plasma was separated from the blood samples within 15 minutes following collection and stored at −20±5° C. before analysis.
A standard curve was generated from a stock solution of the test compound with known concentration in methanol. […]
Plasma samples collected from rats after dosing were allowed to reach room temperature. […] The supernatant (10 uL) was analyzed by LC-MS/MS (LC: Shimadzu SIL HTc, MS: MDS Sciex API-5500 & 4000 using 75%/25% acetonitrile/0.2% formic acid in Milli-Q water, flow rate: 1.0 mL/min, run time 3 minutes, Atlantis dC18(50×4.6 mm, 3 um; Waters®)) and the concentrations of the test compound in the plasma samples collected from rats at each time point were determined by comparison to the standard curve samples.
Pharmacokinetic parameters were calculated from the plasma concentrations at each time point using Phoenix WinNonlin (Version 7.0) by the non-compartmental analysis (NCA) method. […]

minipig hepatocytes = experiment: In vitro metabolite profile in minipig hepatocytes; format: in vitro ADME; set-up: key to UV % at 280-290 nm or observed (+ or --), metabolite M532b (Hydroxylation) / UV % at 280-290 nm or observed (+ or --), metabolite M532c (Hydroxylation) / UV % at 280-290 nm or observed (+ or --), metabolite M563 (O-dealkylation + Glucuronidation) / UV % at 280-290 nm or observed (+ or --), metabolite M530b (Hydroxylation) / UV % at 280-290 nm or observed (+ or --), metabolite M530c (Hydroxylation): +: only detected by MS; --: not detected or trace; settings: 10 μM; for UV % at 280-290 nm, Parent-T0 min: T0 min (normalized as 100%)
Procedure: (§1) Briefly, each test compound (final concentration of 10 μM containing 0.1% DMSO) was incubated with rat, dog, minipig, monkey, or human hepatocytes (final viable cell density of 1×10^6 cells/mL) at 37° C. with 5% CO2 in HI hepatocyte maintenance media (BIOIVT; Catalog #Z99009) for 120 minutes. Reactions were initiated by combining 200 μL of pre-warmed 2× dosing solution containing 20 μM test compound and 0.2% DMSO in HI maintenance media with 200 μL of pre-warmed hepatocyte solution containing 2×10^6 cells/mL in HI maintenance media. Samples were taken at 0 minutes (T0) and 120 minutes (T120) by quenching the reaction with 1200 μL acetonitrile. After quenching, the samples were sonicated for 2 minutes and then centrifuged at 1400 rpm for 5 minutes. A 1400-μL aliquot of the supernatant was evaporated under a stream of N2 until dry. The dried extracts were then reconstituted with 200 μL acetonitrile: H2O (1:3 v/v), vortexed for 2 minutes and centrifuged at 14000 rpm for 5 minutes. A 2-μL aliquot of the supernatant was injected onto a Xevo UPLC-UV-G2-S Q-Tof system (Waters®) with positive-ion electrospray ionization for analysis. Chromatographic separation was achieved on an Acquity UPLC®BEH C18 column (2.1×50 mm, 1.7 μm; Waters®) by gradient elution using varying proportions of mobile phase A (H2O with 0.1% formic acid) and mobile phase B (acetonitrile with 0.1% formic acid) at a constant flow rate of 400 μL/minute over a total run time of 10 minutes. LC-UV-MS extract ion chromatograms (EIC) of the T120 samples were compared to the T0 samples to identify the major putative metabolites which were named as Mm/z.

monkey hepatocytes = experiment: In vitro metabolite profile in monkey hepatocytes; format: in vitro ADME; set-up: key to UV % at 280-290 nm or observed (+ or --), metabolite M387 (O-dealkylation) / UV % at 280-290 nm or observed (+ or --), metabolite M532b (Hydroxylation) / UV % at 280-290 nm or observed (+ or --), metabolite M532c (Hydroxylation) / UV % at 280-290 nm or observed (+ or --), metabolite M532d (Hydroxylation) / UV % at 280-290 nm or observed (+ or --), metabolite M563 (O-dealkylation + Glucuronidation) / UV % at 280-290 nm or observed (+ or --), metabolite M530b (Hydroxylation) / UV % at 280-290 nm or observed (+ or --), metabolite M530c (Hydroxylation) / UV % at 280-290 nm or observed (+ or --), metabolite M530d (Hydroxylation): +: only detected by MS; --: not detected or trace; settings: 10 μM; for UV % at 280-290 nm, Parent-T0 min: T0 min (normalized as 100%)
Procedure: as §1

[2] = 120 min, relative to parent at T0

SMILES: Cc1cnc(-c2ccnc(C(C)(C)O)n2)cc1-n1c(C)cc(OCc2ncc(F)cc2F)c(Cl)c1=O (atropisomer, axis not shown; (P)) [Example 1-H2, (P)-3-chloro-4-((3,5-difluoropyridin-2-yl)methoxy)-2′-(2-(2-hydroxypropan-2-yl)pyrimidin-4-yl)-5′,6-dimethyl-2H-[1,4′-bipyridin]-2-one]
- AUC0-10 hr ([1]; ± one standard deviation): 854 ± 228 ng·h/mL
- UV % at 280-290 nm or observed (+ or --), metabolite M387 (O-dealkylation) (minipig hepatocytes; [2]): 14.4%
- UV % at 280-290 nm or observed (+ or --), metabolite M530b (Hydroxylation) (minipig hepatocytes; [2]): --
- UV % at 280-290 nm or observed (+ or --), metabolite M530c (Hydroxylation) (minipig hepatocytes; [2]): +
- UV % at 280-290 nm or observed (+ or --), metabolite M530e (Hydroxylation) (minipig hepatocytes; [2]): 2.4%
- UV % at 280-290 nm or observed (+ or --), metabolite M563 (O-dealkylation + Glucuronidation) (minipig hepatocytes; [2]): +
- UV % at 280-290 nm or observed (+ or --), metabolite M530d (Hydroxylation) (minipig hepatocytes; [2]): 1.6%
- UV % at 280-290 nm, Parent-T120 min (minipig hepatocytes; [2]): 70.0%
- UV % at 280-290 nm, Parent-T0 min (minipig hepatocytes): 100.0%
- UV % at 280-290 nm or observed (+ or --), metabolite M387 (O-dealkylation) (monkey hepatocytes; [2]): 4.8%
- UV % at 280-290 nm or observed (+ or --), metabolite M530b (Hydroxylation) (monkey hepatocytes; [2]): --
- UV % at 280-290 nm or observed (+ or --), metabolite M530c (Hydroxylation) (monkey hepatocytes; [2]): +
- UV % at 280-290 nm or observed (+ or --), metabolite M530e (Hydroxylation) (monkey hepatocytes; [2]): 1.5%
- UV % at 280-290 nm or observed (+ or --), metabolite M563 (O-dealkylation + Glucuronidation) (monkey hepatocytes; [2]): +
- UV % at 280-290 nm or observed (+ or --), metabolite M530d (Hydroxylation) (monkey hepatocytes; [2]): --
- UV % at 280-290 nm, Parent-T120 min (monkey hepatocytes; [2]): 85.7%
- UV % at 280-290 nm, Parent-T0 min (monkey hepatocytes): 100.0%

SMILES: [2H]C([2H])(Oc1cc(C)n(-c2cc(-c3ccnc(C(C)(C)O)n3)ncc2C)c(=O)c1Cl)c1ncc(F)cc1F (single isomer, unassigned) [Example 1-D2, (P)-3-Chloro-4-((3,5-difluoropyridin-2-yl)methoxy-d2)-2′-(2-(2-hydroxypropan-2-yl)pyrimidin-4-yl)-5′,6-dimethyl-2H-[1,4′-bipyridin]-2-one]
- effect of deuterium substitution on exposure after PO dosing (AUC) ([1]; versus non-deuterated comparator, listed as Example 1): significantly higher exposure; also recorded: increased exposure
- AUC(0-t) ([1]; Sprague-Dawley, rat, plasma, 2 mg/kg, ± one standard deviation, read-out: AUC0-10 hr): 2020 ± 120 ng·h/mL
- UV % at 280-290 nm or observed (+ or --), metabolite M532b (Hydroxylation) (minipig hepatocytes; [2]): +
- UV % at 280-290 nm or observed (+ or --), metabolite M532c (Hydroxylation) (minipig hepatocytes; [2]): +
- UV % at 280-290 nm, Parent-T120 min (minipig hepatocytes; [2]): 81.1%
- UV % at 280-290 nm, Parent-T0 min (minipig hepatocytes): 100.0%
- UV % at 280-290 nm or observed (+ or --), metabolite M387 (O-dealkylation) (monkey hepatocytes; [2]): +
- UV % at 280-290 nm or observed (+ or --), metabolite M532b (Hydroxylation) (monkey hepatocytes; [2]): --
- UV % at 280-290 nm or observed (+ or --), metabolite M532c (Hydroxylation) (monkey hepatocytes; [2]): +
- UV % at 280-290 nm or observed (+ or --), metabolite M532d (Hydroxylation) (monkey hepatocytes; [2]): +
- UV % at 280-290 nm, Parent-T120 min (monkey hepatocytes; [2]): 96.6%
- UV % at 280-290 nm, Parent-T0 min (monkey hepatocytes): 100.0%
